These results are taken from patent US5359075A, “Quinophthalone compound” (Mitsui Toatsu Chemicals, Incorporated, priority 1991, dated 1994).

A short description of data set [1]: maximum absorption wavelength. It counts as physicochemical. Conditions: for λmax: solvent not given.
Data set [2] can be described thus: solubility of each compound in a solvent. Format: physicochemical. The note with it: at 20° C., % on weight. As to the method: For the six compounds (B) to (H) of Examples 1 to 6 and the compounds (I) and (J) for comparison, the solubility of each compound in a solvent was measured.
Data set [3] is described as follows: Resin coloring suitability test: heat resistance. Format: physicochemical. The note with it: 0.02 pts. wt., 300° C./10 min.; for Heat resistance (H), ABS: Acrylonitrile/butadiene/styrene; for Heat resistance (H), PC: Polycarbonate; for Heat resistance (H), PET: Polyethylene glycol terephthalate; for Heat resistance (H), PS: Polystyrene. The protocol:
For the compounds (B, C, D, F, G and H), a resin coloring suitability test was conducted.
H: Heat resistance, 300° C./10 min., Gray scale judgement
Heat resistance and bleed resistance: […]
judgement, and the fifth grade or more was denoted by .circleincircle. an
the third to fifth grades by .largecircle..

Data set [4] can be described thus: Dichroic ratio / liquid crystal display element in liquid crystal mixture E-8. Conditions: liquid crystal E-8. The protocol:
Each of the dyestuffs of Examples 12 and 13 was added to 9.8 parts of a liquid crystal mixture of a trade name E-8 made by Merck AG, and the mixture was then heated up to about 60° C. to completely dissolve the dyestuff. After cooling, the solution was poured into a liquid crystal display element, and it was then hermetically sealed.
Each sample was put on a light path of a spectrophotometer, and an absorbance A was measured by applying straight polarized light to the liquid crystal in parallel with the arrangement of the liquid crystal and an absorbance A' was measured by applying straight polarized light to the liquid crystal at a right angle to the arrangement of the liquid crystal. By the use of the thus measured absorbances A and A', a dichroic ratio was calculated in accordance with the following formula: […]
Furthermore, as comparative preparation examples, otherwise the same liquid crystals as mentioned above were prepared from compounds for comparison represented by the following formulae (K) and (L).

Molecules are shown by their SMILES.

As for `CC(=O)OCC1(COC(C)=O)COC(c2ccc3c(c2)C(=O)C(c2nc4ccccc4cc2O)C3=O)=N1` (stereo not drawn) [Example 16], in data set [1] (Table 5), the λmax came out at 450 nm.

Consider `CCCCN(CCCC)C(=O)c1ccc2c(c1)C(=O)C(c1nc3ccc(C(C)C)cc3cc1O)C2=O` (stereo not drawn) [F], for which the “maximum absorption wavelength in toluene” value in data set [1] worked out at 450 nm. In data set [2], the “Solubility in Acetone” value is recorded as 7.10%, the “Solubility in DMF” value is 13.49%, the “Solubility in THF” value turned out to be 12.63% and the “Solubility in Toluene” value is reported as 10.52%. In addition, in data set [3], the “Heat resistance (H), ABS” value is “.largecircle. (the third to fifth grades)”; the “Heat resistance (H), PC” value is reported as “.circleincircle. (the fifth grade or more)”; the “Heat resistance (H), PET” value is on record as “.circleincircle. (the fifth grade or more)”; the “Heat resistance (H), PS” value is “.circleincircle. (the fifth grade or more)”.

With `CCC1(COC(C)=O)COC(c2ccc3c(c2)C(=O)C(c2nc4ccc(C(C)C)cc4cc2O)C3=O)=N1` (stereo not drawn) [Example 20], in data set [1] (Table 5), the λmax turned out to be 450 nm.

In the case of `CCCCCCCCOc1ccc(-c2ccc(N3C(=O)c4cc5c(cc4C3=O)C(=O)C(c3nc4ccc(C(C)C)cc4cc3O)C5=O)cc2)cc1` [Example 12], in data set [1] (Table 1), the λmax is 455 nm.

In turn, `CCCCNC(=O)c1ccc2c(c1)C(=O)C(c1nc3ccc(C(C)C)cc3cc1O)C2=O` (stereo not drawn) [Example 7] had a λmax in data set [1] (Table 1) of 450 nm.

In data set [1] (Table 5), `CC(C)c1ccc2nc(C3C(=O)c4ccc(-c5nnc(C(C)C)s5)cc4C3=O)c(O)cc2c1` (stereo not drawn) [Example 15] had a λmax of 450 nm.

In data set [1] (Table 5), `CCCCCCC1(CC)COC(c2ccc3c(c2)C(=O)C(c2nc4ccccc4cc2O)C3=O)=N1` (stereo not drawn) [Example 17] yielded a λmax of 450 nm.

Take `CCCCCCNC(=O)c1ccc2c(c1)C(=O)C(c1nc3ccc(C(C)C)cc3c(Br)c1O)C2=O` (stereo not drawn) [Example 9]: the λmax in data set [1] (Table 1) was 450 nm.

Consider `CCCCCCCCN1CCN=C1c1ccc2c(c1)C(=O)C(c1nc3ccccc3c(Sc3ccc(C(C)(C)C)cc3)c1O)C2=O` (stereo not drawn) [Example 14], for which the λmax in data set [1] (Table 5) stood at 450 nm.

In the case of `CC(C)NC(=O)c1cc2c(cc1C(=O)NC(C)C)C(=O)C(c1nc3ccc(C(C)C)cc3cc1O)C2=O` [Example 8], in data set [1] (Table 1), the λmax was determined as 460 nm.

Consider `CC(C)c1nnc(-c2ccc3c(c2)C(=O)C(c2nc4ccccc4cc2O)C3=O)o1` (stereo not drawn) [C], for which the “maximum absorption wavelength in toluene” value in data set [1] was found to be 450 nm. In data set [2], the “Solubility in Acetone” value is 3.95%, the “Solubility in DMF” value was 7.03%, the “Solubility in THF” value worked out at 6.55% and the “Solubility in Toluene” value turned out to be 4.22%. Besides, in data set [3], the “Heat resistance (H), ABS” value is listed as “.largecircle. (the third to fifth grades)”; the “Heat resistance (H), PC” value is given as “.circleincircle. (the fifth grade or more)”; the “Heat resistance (H), PET” value is “.largecircle. (the third to fifth grades)”; the “Heat resistance (H), PS” value is reported as “.circleincircle. (the fifth grade or more)”.

`CCC1(CO)COC(c2ccc3c(c2)C(=O)C(c2nc4ccc(C(C)C)cc4cc2O)C3=O)=N1` (stereo not drawn) [G]: the “maximum absorption wavelength in toluene” value in data set [1] is on record as 450 nm. In data set [2], the “Solubility in Acetone” value is reported as 3.84%, the “Solubility in DMF” value was found to be 6.91%, the “Solubility in THF” value amounted to 6.50% and the “Solubility in Toluene” value worked out at 4.01%. Also, in data set [3], the “Heat resistance (H), ABS” value is “.largecircle. (the third to fifth grades)”; the “Heat resistance (H), PC” value was “.circleincircle. (the fifth grade or more)”; the “Heat resistance (H), PET” value is listed as “.circleincircle. (the fifth grade or more)”; the “Heat resistance (H), PS” value was “.circleincircle. (the fifth grade or more)”.

In data set [1] (Table 5), `CCC1(COC(=O)C(C)C)COC(c2ccc3c(c2)C(=O)C(c2nc4ccc(C5CCCCC5)cc4cc2O)C3=O)=N1` (stereo not drawn) [Example 19] gave a λmax of 450 nm.

For `CC(C)c1ccc2nc(C3C(=O)c4ccccc4C3=O)c(O)cc2c1` [D], the “maximum absorption wavelength in toluene” value in data set [1] turned out to be 450 nm. For the same compound, in data set [2], the “Solubility in Acetone” value is 1.58%, the “Solubility in DMF” value is 3.56%, the “Solubility in THF” value was 2.28% and the “Solubility in Toluene” value worked out at 1.79%. For the same compound, in data set [3], the “Heat resistance (H), ABS” value is “.largecircle. (the third to fifth grades)”; the “Heat resistance (H), PC” value was “.circleincircle. (the fifth grade or more)”; the “Heat resistance (H), PET” value is reported as “.largecircle. (the third to fifth grades)”; the “Heat resistance (H), PS” value is reported as “.circleincircle. (the fifth grade or more)”.

On to `CC1CN=C(c2ccc3c(c2)C(=O)C(c2nc4ccccc4cc2O)C3=O)O1` (stereo not drawn) [B], for which the “maximum absorption wavelength in toluene” value in data set [1] is 448 nm. Further, in data set [2], the “Solubility in Acetone” value is on record as 3.48%, the “Solubility in DMF” value was found to be 6.91%, the “Solubility in THF” value was 6.50% and the “Solubility in Toluene” value turned out to be 3.98%. Also, in data set [3], the “Heat resistance (H), ABS” value is recorded as “.largecircle. (the third to fifth grades)”; the “Heat resistance (H), PC” value is reported as “.circleincircle. (the fifth grade or more)”; the “Heat resistance (H), PET” value was “.largecircle. (the third to fifth grades)”; the “Heat resistance (H), PS” value is reported as “.circleincircle. (the fifth grade or more)”.

With `CCCN(CCC)C(=O)c1ccc2c(c1)C(=O)C(c1nc3ccc(C(C)C)cc3cc1O)C2=O` (stereo not drawn) [Example 11], in data set [1] (Table 1), the λmax is reported as 450 nm.

Consider `CCCCCCCCOC(=O)c1ccc2c(c1)C(=O)C(c1nc3ccc(CCCC)cc3cc1O)C2=O` (stereo not drawn) [I, reference compound], for which, in data set [4], the “dissolution in the liquid crystal” value is on record as “not completely dissolved”. Besides, in data set [2], the “Solubility in Acetone” value is on record as 0.33%, the “Solubility in DMF” value worked out at 1.20%, the “Solubility in THF” value was found to be 0.98% and the “Solubility in Toluene” value turned out to be 0.51%.

For the compound `CCC1(COC(=O)C(C)C)COC(c2ccc3c(c2)C(=O)C(c2nc4ccc(C(C)C)cc4cc2O)C3=O)=N1` (stereo not drawn) [H], the “maximum absorption wavelength in toluene” value in data set [1] was determined as 450 nm. In data set [2], the “Solubility in Acetone” value was determined as 5.31%, the “Solubility in DMF” value came to 12.64%, the “Solubility in THF” value amounted to 10.38% and the “Solubility in Toluene” value is 8.85%. Further, in data set [3], the “Heat resistance (H), ABS” value was “.largecircle. (the third to fifth grades)”; the “Heat resistance (H), PC” value is “.circleincircle. (the fifth grade or more)”; the “Heat resistance (H), PET” value is on record as “.circleincircle. (the fifth grade or more)”; the “Heat resistance (H), PS” value is “.circleincircle. (the fifth grade or more)”.

Turning to `Cc1ccc2oc(-c3ccc(-c4ccc(N5C(=O)c6cc7c(cc6C5=O)C(=O)C(c5nc6ccc(C(C)C)cc6cc5O)C7=O)cc4)cc3)nc2c1` [Example 13], in data set [1] (Table 1), the λmax is recorded as 455 nm.

`CCCCSc1c(O)c(C2C(=O)c3ccccc3C2=O)nc2ccc(C(C)C)cc12` [Example 10]: the λmax in data set [1] (Table 1) was 450 nm.

In data set [1] (Table 5), `CC(=O)OCC1(COC(C)=O)COC(c2ccc3c(c2)C(=O)C(c2nc4ccc(C(C)C)cc4cc2O)C3=O)=N1` (stereo not drawn) [Example 21] yielded a λmax of 450 nm.

In the case of `CCCCOC(=O)c1ccc2c(c1)C(=O)C(c1nc3ccc(C)cc3cc1O)C2=O` (stereo not drawn) [J, reference compound], the “dissolution in the liquid crystal” value in data set [4] is reported as “not completely dissolved”. Besides, in data set [2], the “Solubility in Acetone” value came out at 0.13%, the “Solubility in DMF” value is 0.78%, the “Solubility in THF” value is on record as 0.34% and the “Solubility in Toluene” value was 0.28%.
